pIC50: −log10 of the molar value. Structures can show the parent of a compound that is named as a salt.
How the values were obtained:
[1] = biological target: hERG channel (Homo sapiens (Human), UniProt Q12809); test: Human ERG channel binding assay (fluorescence polarization); conditions: tracer displacement, 4 h at room temperature
Experimental: Human ERG Channel Binding Assay
Fluorescence polarization assay based on the principle of fluorescence polarization where a red-shifted fluorescent tracer is displaced from the hERG channel by compounds that bind to the channel was used to establish the binding of the compounds to hERG channel. […] Briefly, the compounds in serial dilutions were incubated with a membrane fraction containing hERG channel protein and a high-affinity red fluorescent hERG channel ligand in black 384-well plate. […] The IC50 values were calculated using GraphPad Prism.

[2] = biological target: recombinant human CHIT1 (Homo sapiens (Human), UniProt Q13231); test: Human CHIT1 activity assay; type: biochemical; conditions: recombinant human CHIT1, citrate buffer pH 5.2, 37° C., 60 minutes; read-out: hCHIT1, IC50
Sequence of recombinant human CHIT1 (Q13231 22-466): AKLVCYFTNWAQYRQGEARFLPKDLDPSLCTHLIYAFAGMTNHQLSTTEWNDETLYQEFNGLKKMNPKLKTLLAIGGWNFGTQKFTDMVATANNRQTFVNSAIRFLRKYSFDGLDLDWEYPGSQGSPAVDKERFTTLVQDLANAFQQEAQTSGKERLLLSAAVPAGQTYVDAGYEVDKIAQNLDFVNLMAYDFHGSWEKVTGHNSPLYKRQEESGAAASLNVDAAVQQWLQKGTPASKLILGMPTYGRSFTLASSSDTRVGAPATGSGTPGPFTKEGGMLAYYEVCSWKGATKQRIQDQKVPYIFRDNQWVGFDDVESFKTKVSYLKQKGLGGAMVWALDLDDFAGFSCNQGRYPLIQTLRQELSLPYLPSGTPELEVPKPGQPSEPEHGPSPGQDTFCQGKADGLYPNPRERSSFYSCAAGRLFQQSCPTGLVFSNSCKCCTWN
Experimental: (§1) The assay was run in the 96-well plate format, each reaction in the total volume of 100 μL. 4-methylumbelliferyl β-D-N,N′,N″-triacetylchitotriose was used as a substrate for the enzyme. Upon hydrolysis by CHIT1, the substrate releases 4-methylumbelliferyl (4MU) that, when ionized in basic pH, emits fluorescence at 460 nm. Briefly, 40 μL of a substrate was added to each well, followed by 10 μL of compound dilution and 50 μL of CHIT1 recombinant enzyme solution. The reaction was carried out in citrate buffer, pH 5.2, in the dark, at 37° C. for 60 minutes with shaking. […] The IC50 values were calculated using GraphPad Prism.

[3] = biological target: recombinant human AMCase (Homo sapiens (Human), UniProt Q9BZP6); test: Human AMCase activity assay; type: biochemical; conditions: citrate buffer pH 5.2, 37° C., 60 minutes, read-out: hAMCase, IC50
Sequence of recombinant human AMCase (Q9BZP6 22-476): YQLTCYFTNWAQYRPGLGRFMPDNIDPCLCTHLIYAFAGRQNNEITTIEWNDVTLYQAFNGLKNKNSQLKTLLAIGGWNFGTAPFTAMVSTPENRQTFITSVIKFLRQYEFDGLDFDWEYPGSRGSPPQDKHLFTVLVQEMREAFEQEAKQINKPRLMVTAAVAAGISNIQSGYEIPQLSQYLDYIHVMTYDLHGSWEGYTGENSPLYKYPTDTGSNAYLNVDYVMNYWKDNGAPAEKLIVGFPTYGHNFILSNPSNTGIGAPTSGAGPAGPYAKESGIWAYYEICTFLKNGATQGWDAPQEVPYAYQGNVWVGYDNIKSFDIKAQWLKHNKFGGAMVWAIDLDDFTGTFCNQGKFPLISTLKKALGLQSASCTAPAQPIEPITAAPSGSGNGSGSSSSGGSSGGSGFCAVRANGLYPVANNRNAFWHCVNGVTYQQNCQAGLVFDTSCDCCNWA
Experimental: as §1, with “4-Methylumbelliferyl B-D-N,N′-diacetylchitobioside hydrate” for “4-methylumbelliferyl β-D-N,N′,N″-triacetylchitotriose”, “AMCase,” for “CHIT1,”, “hAMCase” for “CHIT1”

Sequence of hERG channel (Q12809 whole entry): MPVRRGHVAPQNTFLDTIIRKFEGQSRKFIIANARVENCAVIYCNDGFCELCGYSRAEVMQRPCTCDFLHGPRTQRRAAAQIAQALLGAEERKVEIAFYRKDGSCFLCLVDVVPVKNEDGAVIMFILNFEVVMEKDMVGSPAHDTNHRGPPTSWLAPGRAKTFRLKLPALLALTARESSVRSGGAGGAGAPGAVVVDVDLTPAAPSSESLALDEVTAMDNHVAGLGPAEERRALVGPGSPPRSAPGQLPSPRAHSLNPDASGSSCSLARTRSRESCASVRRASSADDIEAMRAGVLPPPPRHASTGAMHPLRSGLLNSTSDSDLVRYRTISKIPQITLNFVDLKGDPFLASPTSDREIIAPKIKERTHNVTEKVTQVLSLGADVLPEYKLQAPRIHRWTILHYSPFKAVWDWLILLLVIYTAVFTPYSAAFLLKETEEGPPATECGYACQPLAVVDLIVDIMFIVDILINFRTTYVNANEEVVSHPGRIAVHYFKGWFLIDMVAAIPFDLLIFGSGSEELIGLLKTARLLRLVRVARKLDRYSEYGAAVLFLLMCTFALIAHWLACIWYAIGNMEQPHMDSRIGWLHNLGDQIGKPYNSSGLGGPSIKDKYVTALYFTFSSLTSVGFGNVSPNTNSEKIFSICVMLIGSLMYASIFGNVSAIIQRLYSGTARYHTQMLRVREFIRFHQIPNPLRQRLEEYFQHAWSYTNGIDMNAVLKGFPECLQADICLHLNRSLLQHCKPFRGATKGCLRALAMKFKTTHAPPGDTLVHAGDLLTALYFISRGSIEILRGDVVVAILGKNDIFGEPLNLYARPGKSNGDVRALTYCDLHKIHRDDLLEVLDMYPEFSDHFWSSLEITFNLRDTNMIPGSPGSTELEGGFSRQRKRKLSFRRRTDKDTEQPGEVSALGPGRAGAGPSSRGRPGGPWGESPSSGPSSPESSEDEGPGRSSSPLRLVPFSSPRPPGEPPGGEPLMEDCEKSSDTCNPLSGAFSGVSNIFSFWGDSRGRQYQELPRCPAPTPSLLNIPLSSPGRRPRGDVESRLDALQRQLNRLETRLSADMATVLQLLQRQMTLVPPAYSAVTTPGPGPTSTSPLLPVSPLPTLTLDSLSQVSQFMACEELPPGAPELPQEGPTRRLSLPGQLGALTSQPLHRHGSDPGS

| pIC50 [2] | Structure (SMILES) | pIC50 ([1]; Table 2, comparative examples) | further results |
| --- | --- | --- | --- |
| – | COC(C)(C)[C@H]1CN(C2CCN(c3nnc(N)[nH]3)CC2)[C@@H](Cc2ccc(Cl)cc2)CO1 [Example C3, reference compound] | 4.60 to 5.00 | – |
| – | Nc1nnc(N2CCC(N3CCOC[C@@H]3Cc3ccc(Cl)cc3)CC2)[nH]1 [Example C1, reference compound] | 4.60 to 5.00 | – |
| 5.00 to 6.00 | CC1(O)CCN(C2CCN(c3nnc(N)[nH]3)CC2)[C@@H](Cc2ccc(Cl)cc2)C1 (stereo partly drawn) [Example 59, (2S)-1′-(5-amino-4H-1,2,4-triazol-3-yl)-2-(4-chlorobenzyl)-4-methyl-[1,4′-bipiperidin]-4-ol 2,2,2-trifluoroacetate] | – | pIC50 ([1]; Table 1): 4.00 to 4.60 |
| – | Nc1nnc(N2CCC(N3C[C@@H]4CCCN4C[C@@H]3Cc3ccc(Cl)cc3)CC2)[nH]1 [Example C15, reference compound] | 5.00 to 6.00 | – |
| 6.00 to 7.00 | Nc1nnc(N2CCC(N3CC4CC4C[C@@H]3Cc3ccc(Cl)cc3)CC2)[nH]1 (stereo partly drawn) [Example 72, 5-(4-((4R)-4-(4-chlorobenzyl)-3-azabicyclo[4.1.0]heptan-3-yl)piperidin-1-yl)-4H-1,2,4-triazol-3-amine 2,2,2-trifluoroacetate] | – | pIC50 [3]: > 7.00 |
| > 7.00 | CC(F)(F)[C@H]1CN(C2CCN(c3nnc(N)[nH]3)CC2)[C@@H](Cc2ccc(Cl)cc2)CO1 [Example 42, 5-(4-((2R,5S)-5-(4-chlorobenzyl)-2-(1,1-difluoroethyl)morpholino)piperidin-1-yl)-4H-1,2,4-triazol-3-amine dihydrochloride] | – | pIC50 [3]: > 7.00 |
| – | CC(C)CN1CCN(C2CCN(c3nnc(N)[nH]3)CC2)[C@@H](Cc2ccc(Cl)cc2)C1 [Example C9, reference compound] | 5.00 to 6.00 | – |
| – | Nc1nnc(N2CCC(N3CCC[C@@H]3Cc3ccc(Cl)cc3)CC2)[nH]1 [Example C7, reference compound] | 5.00 to 6.00 | – |
| 6.00 to 7.00 | CO[C@@H]1CC[C@H](Cc2ccc(Cl)cc2)N(C2CCN(c3nnc(N)[nH]3)CC2)C1 [Example 71, 5-((2R,5R)-2-(4-chlorobenzyl)-5-methoxy-[1,4′-bipiperidin]-1′-yl)-4H-1,2,4-triazol-3-amine 2,2,2-trifluoroacetate] | – | pIC50 ([1]; Table 1): 4.00 to 4.60 |
| – | CC(C)C[C@H]1CN(C2CCN(c3nnc(N)[nH]3)CC2)[C@@H](Cc2ccc(Cl)cc2)CO1 [Example C2, reference compound] | 5.00 to 6.00 | – |
| > 7.00 | C[C@H]([C@H]1CN(C2CCN(c3nnc(N)[nH]3)CC2)[C@@H](Cc2ccc(Cl)cc2)CO1)n1cccn1 [Example 19, 5-(4-((2R,5S)-2-((R)-1-(1H-pyrazol-1-yl)ethyl)-5-(4-chlorobenzyl)morpholino)-piperidin-1-yl)-4H-1,2,4-triazol-3-amine 2,2,2-trifluoroacetate] | – | pIC50 [3]: > 7.00 |
| > 7.00 | Nc1nnc(N2CCC(N3C[C@H](COCC(F)F)OC[C@@H]3Cc3ccc(Cl)cc3)CC2)[nH]1 [Example 43, 5-(4-((2R,5S)-5-(4-chlorobenzyl)-2-((2,2-difluoroethoxy)methyl)morpholino)-piperidin-1-yl)-4H-1,2,4-triazol-3-amine 2,2,2-trifluoroacetate] | – | pIC50 [3]: > 7.00 |
| – | Nc1nnc(N2CCC(N3Cc4cc(Cl)ccc4OC[C@@H]3Cc3ccc(Cl)cc3)CC2)[nH]1 [Example C20, reference compound] | 5.00 to 6.00 | – |
| > 7.00 | Nc1nnc(N2CCC(N3C[C@H](O)CC[C@@H]3Cc3ccc(Cl)cc3)CC2)[nH]1 [Example 70, (3R,6R)-1′-(5-amino-4H-1,2,4-triazol-3-yl)-6-(4-chlorobenzyl)-[1,4′-bipiperidin]-3-ol 2,2,2-trifluoroacetate] | – | pIC50 [3]: > 7.00 |
| – | CN1C[C@H](Cc2ccc(Cl)cc2)N(C2CCN(c3nnc(N)[nH]3)CC2)Cc2cc(Cl)ccc21 [Example C18, reference compound] | > 6.00 | – |
| – | Nc1nnc(N2CCC(N3Cc4cc(Cl)cc(Cl)c4OC[C@@H]3Cc3ccc(Cl)cc3)CC2)[nH]1 [Example C21, reference compound] | 5.00 to 6.00 | – |
| > 7.00 | Nc1nnc(N2CCC(N3C[C@H](CN4CCCCC4=O)OC[C@@H]3Cc3ccc(Cl)cc3)CC2)[nH]1 [Example 35, 1-(((2R,5S)-4-(1-(5-amino-4H-1,2,4-triazol-3-yl)piperidin-4-yl)-5-(4-chlorobenzyl)-morpholin-2-yl)methyl)piperidin-2-one 2,2,2-trifluoroacetate] | – | pIC50 [3]: > 7.00 |
| – | CC(C)C[C@H]1CN(C2CCN(c3nnc(N)[nH]3)CC2)[C@@H](Cc2ccc(Cl)cc2)CN1C [Example C12, reference compound] | > 6.00 | – |
| – | CO[C@H]1CN(C2CCN(c3nnc(N)[nH]3)CC2)[C@H]1Cc1ccc(Cl)cc1 [Example C6, reference compound] | > 6.00 | – |
| – | CN1C[C@H](Cc2ccc(Cl)cc2)N(C2CCN(c3nnc(N)[nH]3)CC2)C[C@@H]1Cc1ccc(Cl)cc1 [Example C10, reference compound] | > 6.00 | – |
| > 7.00 | C[C@@H]([C@H]1CN(C2CCN(c3nnc(N)[nH]3)CC2)[C@@H](Cc2ccc(Cl)cc2)CO1)n1cccn1 [Example 18, 5-(4-((2R,5S)-2-((S)-1-(1H-pyrazol-1-yl)ethyl)-5-(4-chlorobenzyl)morpholino)-piperidin-1-yl)-4H-1,2,4-triazol-3-amine 2,2,2-trifluoroacetate] | – | pIC50 [3]: > 7.00 |
| – | Nc1nnc(N2CCC(N3C[C@@H](O)C[C@@H]3Cc3ccc(Cl)cc3)CC2)[nH]1 [Example C14, reference compound] | 4.60 to 5.00 | – |
| – | C[C@H]1CN(C2CCN(c3nnc(N)[nH]3)CC2)[C@@H](Cc2ccc(Cl)cc2)CN1C [Example C8, reference compound] | 5.00 to 6.00 | – |
| – | Nc1nnc(N2CCC(N3CCCC[C@@H]3Cc3ccc(Cl)cc3)CC2)[nH]1 [Example C4, reference compound] | 5.00 to 6.00 | – |
| > 7.00 | Nc1nnc(N2CCC(N3CC(F)(F)C[C@@H]3Cc3ccc(Cl)cc3)CC2)[nH]1 [Example 56, (S)-5-(4-(2-(4-chlorobenzyl)-4,4-difluoropyrrolidin-1-yl)piperidin-1-yl)-4H-1,2,4-triazol-3-amine dihydrochloride] | – | – |
| – | CN1C[C@H](Cc2ccc(Cl)cc2)N(C2CCN(c3nnc(N)[nH]3)CC2)C[C@@H]1CC1CCCCC1 [Example C11, reference compound] | > 6.00 | – |
| – | CN1C[C@H](Cc2ccc(Cl)cc2)N(C2CCN(c3nnc(N)[nH]3)CC2)Cc2ccccc21 [Example C17, reference compound] | 5.00 to 6.00 | – |
| > 7.00 | Nc1nnc(N2CCC(N3C[C@H](COC(F)F)OC[C@@H]3Cc3ccc(Cl)cc3)CC2)[nH]1 [Example 40, 5-(4-((2R,5S)-5-(4-chlorobenzyl)-2-((difluoromethoxy)methyl)morpholino)-piperidin-1-yl)-4H-1,2,4-triazol-3-amine 2,2,2-trifluoroacetate] | – | pIC50 [3]: > 7.00 |
| 5.00 to 6.00 | Nc1nnc(N2CCC(N3Cc4cncn4C[C@@H]3Cc3ccc(C(F)(F)F)cc3)CC2)[nH]1 [Example 77, (S)-5-(4-(6-(4-(trifluoromethyl)benzyl)-5,6-dihydroimidazo[1,5-a]pyrazin-7(8H)-yl)piperidin-1-yl)-4H-1,2,4-triazol-3-amine 2,2,2-trifluoroacetate] | – | – |

— patent US11638707B2, “Substituted amino triazoles useful as chitinase inhibitors” (Molecure S.A., priority 2019, dated 2023)
